Data reported in ChEMBL document CHEMBL1201862, “PubChem BioAssay data set” (2004).
Activity calls are given as the source filed them. Rule as the data show it: actives have a measured IC50 and inactives only a lower limit.

Target: Envelope glycoprotein gp160 (Human immunodeficiency virus 1, UniProt Q6QLK5)
Assay: cell-free HIV fusion peptide-binding blockers – biochemical, uHTS, fluorescence dequenching, […] (AID 1986)

Envelope glycoprotein gp160, sequence (Q6QLK5 whole entry, the tested form may be a part): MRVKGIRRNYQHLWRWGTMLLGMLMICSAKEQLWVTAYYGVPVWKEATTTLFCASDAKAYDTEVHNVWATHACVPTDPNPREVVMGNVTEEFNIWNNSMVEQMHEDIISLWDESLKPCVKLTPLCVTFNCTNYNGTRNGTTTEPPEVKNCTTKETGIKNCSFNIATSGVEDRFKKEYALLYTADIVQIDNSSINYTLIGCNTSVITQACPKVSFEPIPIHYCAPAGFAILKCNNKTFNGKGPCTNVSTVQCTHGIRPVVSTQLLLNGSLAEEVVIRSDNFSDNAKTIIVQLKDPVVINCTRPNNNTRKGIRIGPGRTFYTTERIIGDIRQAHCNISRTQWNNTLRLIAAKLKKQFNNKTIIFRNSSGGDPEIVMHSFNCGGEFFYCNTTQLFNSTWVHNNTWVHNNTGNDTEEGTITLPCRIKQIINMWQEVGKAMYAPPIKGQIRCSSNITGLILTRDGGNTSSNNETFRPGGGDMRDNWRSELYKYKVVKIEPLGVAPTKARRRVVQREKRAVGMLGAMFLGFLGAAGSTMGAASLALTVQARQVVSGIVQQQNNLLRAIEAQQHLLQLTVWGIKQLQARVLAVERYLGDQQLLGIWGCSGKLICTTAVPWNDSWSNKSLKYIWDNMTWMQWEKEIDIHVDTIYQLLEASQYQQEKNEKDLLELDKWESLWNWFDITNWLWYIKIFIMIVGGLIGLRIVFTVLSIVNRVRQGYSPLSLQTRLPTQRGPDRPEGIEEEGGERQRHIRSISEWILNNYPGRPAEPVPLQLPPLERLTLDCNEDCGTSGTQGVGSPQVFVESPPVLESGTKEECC

**Q.** For COc1cc(/C=C2/C(=N)N3C(=NC2=O)SN=C3S(C)(=O)=O)ccc1OS(=O)(=O)c1ccccc1, which IC50 is on record?
**A.** 19.8 µM (active)
